Laboratory results reported in US20150065544A1, “THERAPEUTIC AGENT AND PREVENTIVE AGENT FOR DEMYELINATING DISEASE” (OSAKA UNIVERSITY, priority 2011, published 2015).

Tests used:
[1] = test system: mouse experimental autoimmune encephalomyelitis (EAE) models; assay: Histopathological examination of spinal cord tissues of EAE mice; format: in vivo, mouse (SJL/J); conditions: Day 16 post-immunization
[2] = test system: mouse experimental autoimmune encephalomyelitis (EAE) models; assay: Clinical symptom scores in mouse experimental autoimmune encephalomyelitis (EAE) model; format: in vivo, mouse (SJL/J); conditions: Day 10 to Day 44 after immunization, versus tap water group 1, FIG. 1
Procedure: In mouse experimental autoimmune encephalomyelitis (EAE) models, which are MS animal models, the effects of 2-(3-cyano-4-isobutyloxyphenyl)-4-methyl-5-thiazolecarboxylic acid (Compound A) were investigated. Proteolipid protein (PLP) and complete Freund's adjuvant were administered subcutaneously to 8-week-old female SJL/J mice for immunization to induce EAE. The animals were divided into 3 groups; tap water, 1.5 mg/kg/day of Compound A and 0.75 mg/kg/day of Compound A were administered to the first, second and third group, respectively, by administration in drinking water from Day 10 to Day 44 after the immunization day. Neurological symptoms in the extremities were monitored daily from the day of immunization to Day 44 post-immunization, and the observations were scored as clinical symptoms (Vsevolod Smolianov, et al., Alteration of T cell cytokine production in PLPp-139-151-induced EAE in SJL mice by animmunostimulatory CpG Oligonucleotide. Journal of Neuroinflammation 2011, 8:59).

Cc1nc(-c2ccc(OCC(C)C)c(C#N)c2)sc1C(=O)O [Compound A, 2-(3-cyano-4-isobutyloxyphenyl)-4-methyl-5-thiazolecarboxylic acid]
Inflammation in the spinal cord tissues (iNOS-positive cells, activated macrophages, activation of astrocytes) ([1]; conclusion from FIG. 2): suppressed inflammation in the tissues
Staining of inducible nitric oxide synthase (iNOS), macrophages and astrocytes in spinal cord tissues ([1]; group 3: 0.75 mg/kg/day, versus tap water group 1, FIG. 2): weak
Clinical symptoms of EAE (neurological symptom scores) ([2]; group 2: 1.5 mg/kg/day in drinking water): suppressed
Clinical symptoms of EAE (neurological symptom scores) ([2]; group 3: 0.75 mg/kg/day in drinking water): suppressed
